For data set [1], the system named is Hepatotoxicity.
In data set [2] the test system is Hepatotoxicity. The source holds these as a separate data set.
For data set [3], the system named is Hepatotoxicity. This is another data set of the same source.
Data set [4] has as its system Hepatotoxicity. The source holds these as a separate data set.
Data set [5] relates to Hepatotoxicity. The source holds these as a separate data set.
Data set [6] has as its system Hepatotoxicity. The source holds these as a separate data set.
In data set [7] the test system is Hepatotoxicity. This is another data set of the same source.
In data set [8] the test system is Hepatotoxicity. This is another data set of the same source.
Data set [9] concerns Hepatotoxicity. The source holds these as a separate data set.
The subject of data set [10] is Hepatotoxicity. This is another data set of the same source.
In data set [11] the test system is Hepatotoxicity. The source holds these as a separate data set.
Data set [12] deals with Hepatotoxicity. This is another data set of the same source.
Data set [13] relates to Hepatotoxicity. This is another data set of the same source.
For data set [14], the system named is Hepatotoxicity. The source holds these as a separate data set.
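For HepSE Combined Scores in this document: combined hepatic side effect score as listed in the training data of the Drug Induced Liver Injury Prediction System (DILIps).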
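For HepSE bilirubinemia in this document: bilirubinemia hepatic side effect score drawn from the DILIps training data, a prediction system for drug-induced liver injury; call rule not given here.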
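For HepSE cholecystitis in this document: Cholecystitis-related hepatic side effect score drawn from the DILIps (drug-induced liver injury prediction) training data set; call rule not given here.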
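For HepSE cholelithiasis in this document: hepatic side effect score for cholelithiasis, drawn from the DILIps training data for predicting drug-induced liver injury; call rule not given here.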
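For HepSE cirrhosis in this document: cirrhosis hepatic side effect score taken from the DILIps (drug-induced liver injury prediction) training set; call rule not given here.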
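For HepSE elevated liver function tests in this document: hepatic side effect score for raised liver function tests, as recorded in the DILIps training set used for predicting drug-induced liver injury.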
For HepSE hepatic failure in this document: call rule not given here.
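For HepSE hepatic necrosis in this document: score of hepatic side effects for hepatic necrosis, drawn from the training data of DILIps, a prediction system for drug-induced liver injury; call rule not given here.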
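For HepSE hepatitis in this document: Hepatitis-related hepatic side effect score taken from the training data of DILIps, a prediction system for drug-induced liver injury; call rule not given here.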
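For HepSE hepatomegaly in this document: hepatic side effect score for hepatomegaly, taken from the training set of the DILIps drug-induced liver injury prediction system; call rule not given here.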
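For HepSE jaundice in this document: Jaundice-related hepatic side-effect score drawn from the training data of the DILIps (drug-induced liver injury prediction system); call rule not given here.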
For HepSE liver disease in this document: call rule not given here.
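For HepSE liver fatty in this document: hepatic side effect score for fatty liver, taken from the DILIps training set for predicting drug-induced liver injury; call rule not given here.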
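For HepSE liver function tests abnormal in this document: hepatic side effect score taken from the DILIps (drug-induced liver injury prediction system) training data, here covering abnormal liver function test findings.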

`CC(C)NCC(O)COc1ccc(CCOCC2CC2)cc1` (stereo not given) [BETAXOLOL]: in the data set with Hepatotoxicity [1] (Liver), the HepSE_liver disease is recorded as 0. This compound came in with a HepSE_cholecystitis in the data set with Hepatotoxicity [2] (Liver) of 0. Moreover, the “HepSE_Combined Scores” value with Hepatotoxicity [3] (Liver) came out at 0. In addition, in the data set with Hepatotoxicity [4] (Liver), the HepSE_liver fatty came out at 0. In the data set with Hepatotoxicity [5] (Liver), the HepSE_hepatic failure stood at 0. Moreover, the HepSE_jaundice in the data set with Hepatotoxicity [6] (Liver) was 0. Further, in the data set with Hepatotoxicity [7] (Liver), the “HepSE_liver function tests abnormal” value was 0. In the data set with Hepatotoxicity [8] (Liver), this compound displayed a HepSE_hepatic necrosis of 0. Moreover, the HepSE_hepatitis in the data set on Hepatotoxicity [9] (Liver) is 0. In addition, the HepSE_cirrhosis in the data set on Hepatotoxicity [10] (Liver) came out at 0. In the data set with Hepatotoxicity [11] (Liver), this compound showed a HepSE_cholelithiasis of 0. In addition, the “HepSE_elevated liver function tests” value in the data set with Hepatotoxicity [12] (Liver) turned out to be 0. The HepSE_hepatomegaly with Hepatotoxicity [13] (Liver) is listed as 0. Also, in the data set on Hepatotoxicity [14] (Liver), the HepSE_bilirubinemia is 0.

With `NCCCC[C@H](N[C@@H](CCc1ccccc1)C(=O)O)C(=O)N1CCC[C@H]1C(=O)O` [LISINOPRIL ANHYDROUS], in the data set with Hepatotoxicity [1], the HepSE_liver disease stood at 0. In the data set on Hepatotoxicity [2], this compound registered a HepSE_cholecystitis of 0. Moreover, the “HepSE_Combined Scores” value in the data set on Hepatotoxicity [3] amounted to 3. Further, the HepSE_liver fatty in the data set with Hepatotoxicity [4] turned out to be 0. The HepSE_hepatic failure in the data set on Hepatotoxicity [5] was 1. In addition, the HepSE_jaundice in the data set with Hepatotoxicity [6] was found to be 1. In the data set on Hepatotoxicity [7], the “HepSE_liver function tests abnormal” value is listed as 0. In the data set with Hepatotoxicity [8], this compound returned a HepSE_hepatic necrosis of 0. Besides, the HepSE_hepatitis with Hepatotoxicity [9] is on record as 1. Moreover, the HepSE_cirrhosis in the data set on Hepatotoxicity [10] is on record as 0. The HepSE_cholelithiasis in the data set with Hepatotoxicity [11] came out at 0. Also, in the data set on Hepatotoxicity [12], the “HepSE_elevated liver function tests” value is 0. In the data set on Hepatotoxicity [13], the HepSE_hepatomegaly was 0. Also, the HepSE_bilirubinemia with Hepatotoxicity [14] is given as 0.

`CC1=C(C(=O)O)N2C(=O)[C@@H](NC(=O)[C@H](N)c3ccc(O)cc3)[C@H]2SC1` [CEFADROXIL] showed a HepSE_liver disease in the data set with Hepatotoxicity [1] of 0. Further, in the data set with Hepatotoxicity [2], the HepSE_cholecystitis is on record as 0. In addition, in the data set with Hepatotoxicity [3], the “HepSE_Combined Scores” value is on record as 1. The same compound had a HepSE_liver fatty in the data set on Hepatotoxicity [4] of 0. Further, in the data set with Hepatotoxicity [5], the HepSE_hepatic failure is 1. Moreover, the HepSE_jaundice in the data set with Hepatotoxicity [6] is on record as 0. For the same compound, the “HepSE_liver function tests abnormal” value with Hepatotoxicity [7] was found to be 0. Further, in the data set on Hepatotoxicity [8], the HepSE_hepatic necrosis stood at 0. For the same compound, the HepSE_hepatitis in the data set with Hepatotoxicity [9] worked out at 0. The same compound gave a HepSE_cirrhosis with Hepatotoxicity [10] of 0. The compound further gave a HepSE_cholelithiasis in the data set on Hepatotoxicity [11] of 0. Besides, the “HepSE_elevated liver function tests” value with Hepatotoxicity [12] was found to be 0. For the same compound, the HepSE_hepatomegaly in the data set on Hepatotoxicity [13] was 0. For the same compound, the HepSE_bilirubinemia in the data set with Hepatotoxicity [14] came out at 0.

`Nc1ccn([C@H]2CC[C@@H](CO)O2)c(=O)n1` [ZALCITABINE] returned a HepSE_liver disease in the data set with Hepatotoxicity [1] (Liver) of 0. Also, in the data set on Hepatotoxicity [2] (Liver), the HepSE_cholecystitis was found to be 1. Moreover, in the data set on Hepatotoxicity [3] (Liver), the “HepSE_Combined Scores” value is 5. In the data set on Hepatotoxicity [4] (Liver), this compound registered a HepSE_liver fatty of 0. The compound further returned a HepSE_hepatic failure with Hepatotoxicity [5] (Liver) of 0. In the data set on Hepatotoxicity [6] (Liver), this compound came in with a HepSE_jaundice of 1. Further, in the data set on Hepatotoxicity [7] (Liver), the “HepSE_liver function tests abnormal” value is 0. This compound also registered a HepSE_hepatic necrosis in the data set on Hepatotoxicity [8] (Liver) of 0. Further, the HepSE_hepatitis with Hepatotoxicity [9] (Liver) is 1. This compound also yielded a HepSE_cirrhosis with Hepatotoxicity [10] (Liver) of 0. Moreover, in the data set on Hepatotoxicity [11] (Liver), the HepSE_cholelithiasis turned out to be 0. In the data set on Hepatotoxicity [12] (Liver), the “HepSE_elevated liver function tests” value came to 0. The same compound yielded a HepSE_hepatomegaly in the data set on Hepatotoxicity [13] (Liver) of 1. For the same compound, the HepSE_bilirubinemia with Hepatotoxicity [14] (Liver) is on record as 1.

`CNS(=O)(=O)CCc1ccc2[nH]cc(C3CCN(C)CC3)c2c1` showed a HepSE_liver disease in the data set with Hepatotoxicity [1] of 0. The HepSE_cholecystitis in the data set with Hepatotoxicity [2] was found to be 0. Moreover, the “HepSE_Combined Scores” value in the data set with Hepatotoxicity [3] stood at 1. The HepSE_liver fatty in the data set with Hepatotoxicity [4] amounted to 0. Further, the HepSE_hepatic failure in the data set with Hepatotoxicity [5] is listed as 0. This compound returned a HepSE_jaundice in the data set with Hepatotoxicity [6] of 0. Moreover, in the data set on Hepatotoxicity [7], the “HepSE_liver function tests abnormal” value worked out at 1. In addition, the HepSE_hepatic necrosis in the data set on Hepatotoxicity [8] worked out at 0. Moreover, in the data set on Hepatotoxicity [9], the HepSE_hepatitis was found to be 0. The same compound registered a HepSE_cirrhosis with Hepatotoxicity [10] of 0. The compound also registered a HepSE_cholelithiasis in the data set on Hepatotoxicity [11] of 0. Further, the “HepSE_elevated liver function tests” value in the data set on Hepatotoxicity [12] stood at 0. This compound also displayed a HepSE_hepatomegaly in the data set on Hepatotoxicity [13] of 0. Besides, the HepSE_bilirubinemia with Hepatotoxicity [14] was 0.

Compound `Cc1onc(-c2ccccc2)c1-c1ccc(S(N)(=O)=O)cc1` [VALDECOXIB] returned a HepSE_liver disease in the data set on Hepatotoxicity [1] of 0. In the data set on Hepatotoxicity [2], this compound yielded a HepSE_cholecystitis of 0. The “HepSE_Combined Scores” value with Hepatotoxicity [3] came out at 2. The HepSE_liver fatty in the data set on Hepatotoxicity [4] amounted to 0. In the data set on Hepatotoxicity [5], this compound had a HepSE_hepatic failure of 0. In the data set with Hepatotoxicity [6], this compound returned a HepSE_jaundice of 0. Besides, in the data set with Hepatotoxicity [7], the “HepSE_liver function tests abnormal” value worked out at 0. In the data set on Hepatotoxicity [8], the HepSE_hepatic necrosis turned out to be 0. For the same compound, the HepSE_hepatitis in the data set with Hepatotoxicity [9] is 1. The HepSE_cirrhosis in the data set on Hepatotoxicity [10] was determined as 0. This compound also returned a HepSE_cholelithiasis with Hepatotoxicity [11] of 1. Further, in the data set on Hepatotoxicity [12], the “HepSE_elevated liver function tests” value is 0. Moreover, in the data set with Hepatotoxicity [13], the HepSE_hepatomegaly was determined as 0. Besides, the HepSE_bilirubinemia with Hepatotoxicity [14] is given as 0.

For the compound `C[C@H](/C=C/[C@H](C)C(C)(C)O)[C@H]1CC[C@H]2/C(=C/C=C3C[C@@H](O)C[C@H](O)C3)CCC[C@]12C` [PARICALCITOL], the HepSE_liver disease in the data set on Hepatotoxicity [1] is given as 0. The HepSE_cholecystitis in the data set on Hepatotoxicity [2] is recorded as 0. Also, the “HepSE_Combined Scores” value with Hepatotoxicity [3] came out at 0. In the data set with Hepatotoxicity [4], this compound showed a HepSE_liver fatty of 0. In the data set with Hepatotoxicity [5], this compound yielded a HepSE_hepatic failure of 0. In the data set with Hepatotoxicity [6], this compound gave a HepSE_jaundice of 0. Further, the “HepSE_liver function tests abnormal” value in the data set on Hepatotoxicity [7] was 0. The compound further registered a HepSE_hepatic necrosis in the data set with Hepatotoxicity [8] of 0. In the data set with Hepatotoxicity [9], this compound registered a HepSE_hepatitis of 0. Moreover, the HepSE_cirrhosis in the data set on Hepatotoxicity [10] is 0. The compound further gave a HepSE_cholelithiasis in the data set with Hepatotoxicity [11] of 0. Moreover, in the data set with Hepatotoxicity [12], the “HepSE_elevated liver function tests” value was 0. The same compound came in with a HepSE_hepatomegaly in the data set on Hepatotoxicity [13] of 0. In the data set with Hepatotoxicity [14], this compound registered a HepSE_bilirubinemia of 0.

`CN(C/C=C/c1ccccc1)Cc1cccc2ccccc12` [NAFTIFINE] yielded a HepSE_liver disease in the data set with Hepatotoxicity [1] (Liver) of 0. In the data set on Hepatotoxicity [2] (Liver), this compound displayed a HepSE_cholecystitis of 0. Besides, the “HepSE_Combined Scores” value with Hepatotoxicity [3] (Liver) is listed as 0. The compound also displayed a HepSE_liver fatty in the data set with Hepatotoxicity [4] (Liver) of 0. This compound showed a HepSE_hepatic failure with Hepatotoxicity [5] (Liver) of 0. Moreover, the HepSE_jaundice with Hepatotoxicity [6] (Liver) was determined as 0. Besides, the “HepSE_liver function tests abnormal” value in the data set with Hepatotoxicity [7] (Liver) is on record as 0. In the data set with Hepatotoxicity [8] (Liver), the HepSE_hepatic necrosis is 0. The compound further registered a HepSE_hepatitis in the data set with Hepatotoxicity [9] (Liver) of 0. Besides, in the data set on Hepatotoxicity [10] (Liver), the HepSE_cirrhosis was 0. In the data set on Hepatotoxicity [11] (Liver), this compound displayed a HepSE_cholelithiasis of 0. Moreover, the “HepSE_elevated liver function tests” value in the data set on Hepatotoxicity [12] (Liver) came out at 0. This compound came in with a HepSE_hepatomegaly in the data set on Hepatotoxicity [13] (Liver) of 0. In the data set on Hepatotoxicity [14] (Liver), this compound returned a HepSE_bilirubinemia of 0.

In the data set with Hepatotoxicity [1], `CCOC(=O)[C@H](CCc1ccccc1)N[C@@H](C)C(=O)N1Cc2ccccc2C[C@H]1C(=O)O` displayed a HepSE_liver disease of 0. This compound registered a HepSE_cholecystitis with Hepatotoxicity [2] of 0. Besides, the “HepSE_Combined Scores” value with Hepatotoxicity [3] came out at 3. The compound also came in with a HepSE_liver fatty with Hepatotoxicity [4] of 0. The compound also yielded a HepSE_hepatic failure with Hepatotoxicity [5] of 1. Further, the HepSE_jaundice with Hepatotoxicity [6] is on record as 0. Further, in the data set with Hepatotoxicity [7], the “HepSE_liver function tests abnormal” value amounted to 1. This compound gave a HepSE_hepatic necrosis in the data set with Hepatotoxicity [8] of 0. The HepSE_hepatitis in the data set on Hepatotoxicity [9] came to 1. Moreover, in the data set with Hepatotoxicity [10], the HepSE_cirrhosis amounted to 0. For the same compound, the HepSE_cholelithiasis in the data set with Hepatotoxicity [11] was 0. In addition, the “HepSE_elevated liver function tests” value with Hepatotoxicity [12] was 0. Moreover, the HepSE_hepatomegaly with Hepatotoxicity [13] was 0. Also, the HepSE_bilirubinemia with Hepatotoxicity [14] is reported as 0.

`CC(C)(C)NC[C@H](O)COc1cccc2c1CCCC2=O` [LEVOBUNOLOL]: the HepSE_liver disease in the data set with Hepatotoxicity [1] came out at 0. Further, in the data set on Hepatotoxicity [2], the HepSE_cholecystitis was 0. Besides, the “HepSE_Combined Scores” value in the data set on Hepatotoxicity [3] was 0. This compound came in with a HepSE_liver fatty with Hepatotoxicity [4] of 0. Moreover, the HepSE_hepatic failure in the data set with Hepatotoxicity [5] is reported as 0. In the data set on Hepatotoxicity [6], the HepSE_jaundice was 0. Further, the “HepSE_liver function tests abnormal” value in the data set on Hepatotoxicity [7] was determined as 0. This compound yielded a HepSE_hepatic necrosis in the data set with Hepatotoxicity [8] of 0. Besides, in the data set with Hepatotoxicity [9], the HepSE_hepatitis is on record as 0. This compound returned a HepSE_cirrhosis with Hepatotoxicity [10] of 0. In addition, the HepSE_cholelithiasis with Hepatotoxicity [11] is reported as 0. Also, the “HepSE_elevated liver function tests” value in the data set on Hepatotoxicity [12] is reported as 0. In addition, the HepSE_hepatomegaly with Hepatotoxicity [13] was determined as 0. Besides, the HepSE_bilirubinemia in the data set with Hepatotoxicity [14] was found to be 0.

Source of the values: ChEMBL document CHEMBL1909294, “Translating clinical findings into knowledge in drug safety evaluation--drug induced liver injury prediction system (DILIps)” (PLoS Comput Biol, 2011).
